According to paper PMC5589893, “Identification of Aspergillus fumigatus UDP-Galactopyranose Mutase Inhibitors” (Scientific Reports, 2017):

Experiments:
A. fumigatus UGM [1] = target: T1, A. fumigatus UGM (Aspergillus fumigatus, UniProt Q4W1X2); test: biochemical; type: binding
T1 construct: 8x His-tag (TEV-cleavable) (cleaved yes); made in house; host or cells: E. coli BL21 Turbo (DE3)
Method: Binding of inhibitors to UGM was measured with an Auto-ITC 200 ITC instrument. UGM was dialyzed in 50 mM potassium phosphate buffer, pH 7.0, for 2 h at 4 °C. In all cases, ligands were dissolved in dialysis buffer and protein and ligand were filtered with a […] membrane prior to loading. […] Inhibitor concentration in the syringe was 2 mM (2% DMSO), except for chrysin where the concentration was 600 µM (4% DMSO). […] Thermodynamic parameters were determined from ITC results using Microcal Origin version 7.0 (OriginLab) with the “ITC custom” add-on installed.

A. fumigatus UGM [2] = target: T1, A. fumigatus UGM; test: biochemical; type: binding; settings: 20 µM compound, 2% DMSO, 30 nM ADP-TAMRA, normalized to negative control; read-out: Normalized anisotropy (%)
Method: High-throughput screening of the Spectrum Collection library using the FP assay with the ADP-TAMRA[22] probe was performed at the Virginia Tech Center for Drug Discovery Screening Laboratory. 384 well plates (Greiner 784900) were used and the reaction volume was 15 µL using 25 mM HEPES buffer (pH 7.0). For the screening, 30 nM of ADP-TAMRA with 6.7 µM UGM (based on the Bradford assay) and 20 µM of library compound were used, with a final DMSO concentration of 2%. Fluorescence polarization measurements were performed with excitation at 544 nm and emission at 584 nm, using a wavelength cutoff of 570 nm. Anisotropy measurements were performed after 30 and 120 minutes of incubation at 25 °C. Anisotropy values were normalized to the values obtained in the negative control sample: UGM, ADP-TAMRA, and DMSO (high anisotropy values). The positive control consisted of ADP-TAMRA and DMSO (low anisotropy values). The Z prime (Z′) value was determined using equation (1) where, σN,P and μN,P represent the standard deviation and the mean value the of the negative and positive controls respectively.1 Z′=1−3(σN+σP)/|μN−μP|

A. fumigatus [3] = test: Thermotolerance study, growth in PDA at 50 °C; type: cell-based, Aspergillus fumigatus; settings: 1000 µM compound, 48 h at 50 °C, vs reference
A. fumigatus [4] = test: Congo red susceptibility assay; type: cell-based, Aspergillus fumigatus; settings: 100 µM compound with congo red (0.5 and 1 mg/mL), 48 h, 37 °C
A. fumigatus UGM [5] = target: T1, A. fumigatus UGM; test: biochemical; type: biochemical
Method: (§1) The reaction was quenched with the addition of 70 µL acetonitrile. […] Samples were run at a flow rate of 0.5 mL/min for 5 min. IC50 was also determined by following NADPH oxidation at 340 nm. […] Data was analyzed using KaleidaGraph software. […] Global fitting was performed with Graphpad Prims 6 software (La Jolla, CA).

S. aureus strains = settings: cited from earlier work
A. fumigatus [6] = test: Toxicity study, growth in PDA medium at 37 °C; type: cell-based, Aspergillus fumigatus
A. fumigatus UGM [7] = target: T1, A. fumigatus UGM; test: biochemical; type: biochemical; settings: for Type of Inhibition: NADPH oxidation at different concentrations of inhibitor and NADPH
Method: as §1

UGM = target: T2, UGM (Aspergillus fumigatus, UniProt Q4W1X2); test: ThermoFAD melting temperature assay; type: binding; settings: 20, 100 and 1000 µM compound, 2% DMSO, 1 mg/mL UGM
T2 construct: 8x His-tag (TEV-cleavable) (cleaved yes); made in house; host or cells: E. coli BL21 Turbo (DE3)
T2 sequence (Q4W1X2 whole entry): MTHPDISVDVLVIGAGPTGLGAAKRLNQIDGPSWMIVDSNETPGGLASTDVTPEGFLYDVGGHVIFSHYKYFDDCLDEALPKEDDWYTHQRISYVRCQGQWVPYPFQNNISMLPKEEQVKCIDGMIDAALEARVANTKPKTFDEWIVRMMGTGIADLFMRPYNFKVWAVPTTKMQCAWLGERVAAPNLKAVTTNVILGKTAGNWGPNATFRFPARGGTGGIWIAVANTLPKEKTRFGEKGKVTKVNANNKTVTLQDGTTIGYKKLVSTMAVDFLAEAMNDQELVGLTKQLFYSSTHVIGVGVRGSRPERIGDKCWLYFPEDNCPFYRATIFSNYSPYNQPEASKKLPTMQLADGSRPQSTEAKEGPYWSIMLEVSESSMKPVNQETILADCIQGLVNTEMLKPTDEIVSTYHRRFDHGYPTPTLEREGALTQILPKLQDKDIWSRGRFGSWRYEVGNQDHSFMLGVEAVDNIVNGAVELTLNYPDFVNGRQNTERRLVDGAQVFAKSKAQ
Method: The melting temperature[25] of UGM was determined by measuring the FAD fluorescence as a function of temperature (20–90 °C, 1 °C step) following the reported ThermoFAD procedure. The reaction mix consisted of 20 µL of 1 mg/mL UGM, 2% DMSO in 50 mM potassium phosphate buffer, pH 7.0. As a reference and positive control, the Tm was calculated in the presence DMSO and UDP (10 mM). Different concentrations of inhibitors were added in the range of 0–1 mM at a final DMSO concentration of 2% in the above-mentioned buffer. All experiments were done in triplicate.

[8] = tested on: UDP-glucuronosyltransferases; settings: cited from earlier work

T1 sequence (Q4W1X2 whole entry): as above

COc1ccc([C@@H]2CC(=O)c3c(O)cc(O)cc3O2)cc1O [(2S)-hesperetin]
Kd (A. fumigatus UGM [1]): 31 ± 6 µM
T•∆S (A. fumigatus UGM [1]; ITC, 25 °C): 2.1 ± 0.2 kcal/mol
∆G (A. fumigatus UGM [1]; ITC, 25 °C): -6.1 ± 0.4 kcal/mol
∆H (A. fumigatus UGM [1]; ITC, 25 °C): -4.1 ± 0.4 kcal/mol
remaining activity at 20 µM (A. fumigatus UGM [2]): 17%
Delay in colony development (A. fumigatus [3]): ~ 50%
Growth decrease with congo red (A. fumigatus [4]): ~ 50%
Inhibition of product formation, concentration dependence (A. fumigatus UGM [5]; UPLC at 20 and 200 µM compound, 2% DMSO): concentration dependent potency
Concentration effect (A. fumigatus UGM [5]; inhibition at 200 µM vs 20 µM compound, UPLC): +
inhibition at 200 µM (A. fumigatus UGM [5]; read-out: Inhibition > 50 %): > 50%
Biofilm formation inhibition (S. aureus strains): > 70%
A. fumigatus toxicity (A. fumigatus [6]; 1000 µM): no A. fumigatus toxicity
A. fumigatus toxicity under optimal growth conditions (A. fumigatus [6]; 600 and 1000 µM, 24-48 h): not toxic
Type of Inhibition (A. fumigatus UGM [7]): Competitive (NADPH)
Type of Inhibition (A. fumigatus UGM [7]; listed as (2S)-Hesperetin): competitive against NADPH
Inhibition of NADPH oxidation (A. fumigatus UGM [7]; absence of UDP-Galf): inhibited NADPH oxidation
Increase of Tm of UGM (UGM): ~ 2.7 °C
Effect on UDP-glucuronosyltransferases [8]: inhibitory effect
